Earlier results in patent US4937073A, “Reformed vetiver oil and vetiverol, process for preparing the same, and perfumery composition comprising the same” (Kao Corporation, priority 1988, dated 1990).
Read-outs that look alike come from different tables or passages of the source.

pKa: 2.82 | pKa (listed as Tartaric acid): 1.04
Structure (SMILES): O=C(O)C(O)C(O)C(=O)O (centres unmarked) [tartaric acid]
